Structures are written as SMILES.

T2 sequence (P00533 669-1210 limits assumed): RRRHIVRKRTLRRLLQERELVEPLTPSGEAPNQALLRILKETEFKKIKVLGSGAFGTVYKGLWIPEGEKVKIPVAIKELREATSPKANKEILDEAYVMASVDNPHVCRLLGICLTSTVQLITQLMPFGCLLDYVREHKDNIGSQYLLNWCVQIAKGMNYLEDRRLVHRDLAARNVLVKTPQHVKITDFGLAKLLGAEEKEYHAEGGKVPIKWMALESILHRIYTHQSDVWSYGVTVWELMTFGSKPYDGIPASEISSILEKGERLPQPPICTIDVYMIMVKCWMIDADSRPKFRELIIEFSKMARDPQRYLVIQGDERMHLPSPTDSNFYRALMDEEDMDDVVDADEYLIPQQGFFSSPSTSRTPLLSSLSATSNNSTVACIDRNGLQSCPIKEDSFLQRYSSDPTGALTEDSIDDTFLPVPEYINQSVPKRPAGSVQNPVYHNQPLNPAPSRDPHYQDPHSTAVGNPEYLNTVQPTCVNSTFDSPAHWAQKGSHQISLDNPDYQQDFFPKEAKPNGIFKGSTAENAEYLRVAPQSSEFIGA

For one test, the target named is T1, HER2 intracellular domain (Homo sapiens, UniProt P04626).
T1 construct: made in house; host or cells: SF-21 insect cells, recombinant baculovirus BAC-HER2
T1 sequence (P04626 676-1255 limits assumed): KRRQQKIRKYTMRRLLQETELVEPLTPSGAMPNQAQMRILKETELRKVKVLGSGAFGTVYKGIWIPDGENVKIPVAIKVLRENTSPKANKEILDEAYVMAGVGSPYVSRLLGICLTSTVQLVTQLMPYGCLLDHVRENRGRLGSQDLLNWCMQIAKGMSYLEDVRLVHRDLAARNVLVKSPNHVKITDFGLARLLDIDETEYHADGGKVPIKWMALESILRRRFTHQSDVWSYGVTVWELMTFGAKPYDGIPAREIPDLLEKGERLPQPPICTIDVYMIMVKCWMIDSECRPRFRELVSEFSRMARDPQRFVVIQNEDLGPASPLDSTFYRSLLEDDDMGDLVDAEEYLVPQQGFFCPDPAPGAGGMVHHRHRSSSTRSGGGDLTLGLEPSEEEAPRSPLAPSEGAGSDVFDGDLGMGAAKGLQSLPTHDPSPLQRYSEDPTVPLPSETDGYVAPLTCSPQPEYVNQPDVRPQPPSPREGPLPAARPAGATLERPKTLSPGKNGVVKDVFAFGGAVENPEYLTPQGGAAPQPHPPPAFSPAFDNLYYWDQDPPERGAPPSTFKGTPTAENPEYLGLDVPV
The experiment in a line: Determination of HER2 kinase inhibitory activity. The test is classed as biochemical. Conditions: 1.0 μM test compound; poly-Glu:Tyr (4:1) substrate, [γ-32P]ATP, 25° C., 10 min; read-out: HER2 kinase Inhibitory rate (%) at 1.0 μM. The procedure:
Human HER2 gene was cloned by RT-PCR using total RNA prepared from MCF7 cells as a template. The primer used for RT-PCR was prepared from nucleotide sequence (Genbank Accession M11730) information of HER2 gene by adding a nucleotide sequence encoding flag peptide and a restriction enzyme recognition sequence to a nucleotide sequence (2176-3918 of Genbank Accession M11730) encoding the HER2 intracellular domain region, so that the protein contains an N-terminal Flag tag. The primer nucleotide sequence is shown below.
The RT reaction was conducted using SuperScript First-Strand Synthesis System for RT-PCR (Invitrogen) and the PCR reaction was conducted using a KOD-plus kit (TOYOBO). The obtained PCR product was electrophoresed on agarose gel (1%), the DNA fragment amplified by PCR was recovered from the gel, and then digested with restriction enzymes Sal I and Sph I. The DNA treated with the restriction enzymes was electrophoresed on agarose gel (1%), and the obtained DNA fragment was recovered and ligated to plasmid pFASTBAC1 (Invitrogen) digested with restriction enzymes Sal I and Sph I to give expression plasmid pFB-HER2. The nucleotide sequence of the insertion fragment was confirmed and found to be identical with the nucleotide sequence (2176-3918 of Genbank Accession M11730) of HER2 intracellular domain. Furthermore, using BAC-TO-BAC Baculovirus Expression System (Invitrogen), recombinant baculovirus BAC-HER2 was prepared.
SF-21 cells were sown at 1×10^6 cells/mL to Sf-900II SFM medium (1 L, Invitrogen) containing 10% fetal bovine serum (trace), 50 mg/L gentamicin (Invitrogen) and 0.1% Pluronic F-68 (Invitrogen), and shaking culture was performed using a 2 L volume Erlenmeyer flask at 27° C., 100 rpm. After culturing for 24 hrs, recombinant baculovirus BAC-HER2 (13.4 mL) was added, and the mixture was further cultured for 3 days. The culture medium was centrifuged at 2,000 rpm for 5 min. to give virus-infected cells. The infected cells were washed with a phosphate buffered saline (Invitrogen), centrifuged under the same conditions, and the cells were preserved at −80° C. The cryopreserved cells were thawed in ice, suspended in buffer A (50 mM Tris buffer (30 mL, pH 7.4) containing 20% glycerol, 0.15 M NaCl) supplemented with Complete Protease Inhibitor (Boehringer), and ruptured 3 times with a Polytron homogenizer (Kinematica) at 20,000 rpm for 30 sec. The rupture medium was clarified by centrifugation at 40,000 rpm for 30 min. and filtered with a 0.45 μm filter. The filtrate was passed through a column packed with Anti-FLAG M2 Affinity Gel (4 mL, Sigma) at a flow rate of about 0.5 mL/min. The column was washed with buffer A, and eluted with buffer A containing 100 μg/mL of FLAG peptide. The eluate was concentrated with Vivaspin 20 (Vivascience) having a molecular weight cut off of 30K. The concentrate was purified by gel filtration using Hi Load Superdex 200 pg 16/60 (Amersham Bioscience) equilibrated with buffer A. The fractions containing HER2 intracellular domain were collected, glycerol was added to the final concentration of 50% and cryopreserved at −80° C.
A test compound dissolved in dimethyl sulfoxide (DMSO) was diluted with a buffer for kinase reaction (50 mM Tris-HCl (pH7.5), 5 mM MgCl2, 5 mM MnCl2, 2 mM dithiothreitol, 0.01% Tween-20). To this compound solution (10 μL) was added a buffer for kinase reaction (20 μL) containing 5 μg/mL of HER2 intracellular domain obtained in Experimental Example 1B and 12.5 μg/mL of polypeptide substrate poly-Glu:Tyr (4:1) (Sigma). To the obtained mixture was added 20 μL of ATP solution (1.25 μM ATP, 0.05 μCi [γ-^32P]ATP), the mixture was allowed to react at 25° C. for 10 min. and the reaction was quenched with 50 μL of 20% TCA solution. The reaction solution was allowed to stand at 4° C. for 20 min., and the acid insoluble fraction was transferred to GF/C filter (PerkinElmer) using cell harvester (PerkinElmer) and washed with 250 mM phosphoric acid solution. […]
Consider `Cc1ccc(Oc2ccc(Nc3ncnc4cc(/C=C/CO)[nH]c34)cc2C)cn1` [Example 13, (2E)-3-[4-({3-methyl-4-[(6-methylpyridin-3-yl)oxy]phenyl}amino)-5H-pyrrolo[3,2-d]pyrimidin-6-yl]-2-propen-1-ol], for which the inhibition at 1 µM was 94.9%.

Consider `CCOCCn1ccc2ncnc(Nc3ccc(OCc4cccc(F)c4)c(Cl)c3)c21` [Example 38, N-{3-chloro-4-[(3-fluorobenzyl)oxy]phenyl}-5-(2-ethoxyethyl)-5H-pyrrolo[3,2-d]pyrimidin-4-amine], for which the inhibition at 1 µM came to 95.9%.

In the case of `Cn1ccc2ncnc(Nc3ccc(OCc4cccc(F)c4)c(Cl)c3)c21` [Example 39, N-{3-chloro-4-[(3-fluorobenzyl)oxy]phenyl}-5-methyl-5H-pyrrolo[3,2-d]pyrimidin-4-amine], the inhibition at 1 µM was found to be 96.1%.

In the case of `CC(C)(O)CC(=O)NCCn1ccc2ncnc(Nc3ccc(Oc4cccc(C(F)(F)F)c4)c(Cl)c3)c21` [Example 158, N-{2-[4-({3-chloro-4-[3-(trifluoromethyl)phenoxy]phenyl}amino)-5H-pyrrolo[3,2-d]pyrimidin-5-yl]ethyl}-3-hydroxy-3-methylbutanamide], the inhibition at 1 µM came out at 87%.

On to `Cc1cc(Nc2ncnc3ccn(CCNC(=O)CS(C)(=O)=O)c23)ccc1Oc1cccc(OC(F)(F)F)c1` [Example 190, 2-(methylsulfonyl)-N-{2-[4-({3-methyl-4-[3-(trifluoromethoxy)phenoxy]phenyl}amino)-5H-pyrrolo[3,2-d]pyrimidin-5-yl]ethyl}acetamide], for which the inhibition at 1 µM is 95.9%.

For `CS(=O)(=O)CC(=O)NCCn1ccc2ncnc(Nc3ccc(Oc4cccc(Cl)c4)c(Cl)c3)c21` [Example 191, N-[2-(4-{[3-chloro-4-(3-chlorophenoxy)phenyl]amino}-5H-pyrrolo[3,2-d]pyrimidin-5-yl)ethyl]-2-(methylsulfonyl)acetamide], the inhibition at 1 µM is 100%.

The next test concerns the target T2, EGF receptor intracellular domain protein (Homo sapiens, UniProt P00533).
T2 construct: encoding EGF receptor intracellular domain region, so that the protein contains an N-terminal Flag tag; made in house; host or cells: SF-21 insect cells, recombinant baculovirus BAC-EGFR
The experiment in a line: Determination of EGF receptor kinase inhibitory activity. The following applies: 1.0 μM test compound; biotinyl-poly-Glu:Tyr (4:1), AlphaScreen, 25° C., 10 min; read-out: EGF receptor kinase Inhibitory rate (%) at 1.0 μM. It counts as biochemical. The procedure: Human EGF receptor gene was cloned by RT-PCR using total RNA prepared from A431 cells as a template. The primer for RT-PCR was prepared from nucleotide sequence (Genbank Accession XM—167493) information of EGF receptor gene by adding a nucleotide sequence encoding flag peptide and a restriction enzyme recognition sequence to a nucleotide sequence (2182-3810 of Genbank Accession XM—167493) encoding EGF receptor intracellular domain region, so that the protein contains an N-terminal Flag tag. The primer nucleotide sequence is shown below.
The RT reaction was conducted using SuperScript First-Strand Synthesis System for RT-PCR (Invitrogen) and the PCR reaction was conducted using a KOD-plus kit (TOYOBO). The obtained PCR product was electrophoresed on agarose gel (1%), the DNA fragment amplified by PCR was recovered from the gel, and then digested with restriction enzymes Sal I and Sph I. The DNA treated with the restriction enzymes was electrophoresed on agarose gel (1%), and the obtained DNA fragment was recovered and ligated to plasmid pFASTBAC1 (Invitrogen) digested with restriction enzymes Sal I and Sph I to give expression plasmid pFB-EGFR. The nucleotide sequence of insertion fragment was confirmed and found to be identical with the nucleotide sequence (2182-3810 of Genbank Accession XM—167493) of EGFR intracellular domain. Furthermore, using BAC-TO-BAC Baculovirus Expression System (Invitrogen), virus stock BAC-EGFR of recombinant baculovirus was prepared.
SF-21 cells were sown at 1×10^6 cells/mL to Sf-900II SFM medium (1 L, Invitrogen) containing 10% fetal bovine serum (trace), 50 mg/L gentamicin (Invitrogen) and 0.1% Pluronic F-68 (Invitrogen), and shaking culture was performed using a 2 L volume Erlenmeyer flask at 27° C., 100 rpm. After culturing for 24 hrs, recombinant baculovirus BAC-EGFR (13.4 mL) was added, and the mixture was further cultured for 3 days. The culture medium was centrifuged at 2,000 rpm for 5 min. to give virus-infected cells. The infected cells were washed with a phosphate buffered saline (Invitrogen), centrifuged under the same conditions, and the cells were preserved at −80° C. The cryopreserved cells were thawed in ice, suspended in buffer A (50 mM Tris buffer (30 mL, pH7.4) containing 20% glycerol, 0.15 M NaCl) supplemented with Complete Protease Inhibitor (Boehringer), and ruptured 3 times with a Polytron homogenizer (Kinematica) at 20,000 rpm for 30 sec. The ruptured medium was clarified by centrifugation at 40,000 rpm for 30 min. and filtered with a 0.45 μm filter. The filtrate was passed through a column packed with Anti-FLAG M2 Affinity Gel (4 mL, Sigma) at a flow rate of about 0.5 mL/min. The column was washed with buffer A, and eluted with buffer A containing 100 μg/mL of FLAG peptide. The eluate was concentrated with Vivaspin 20 (Vivascience) having a molecular weight cut off of 30K. The buffer of this concentrate was exchanged using NAPE 25 column (Amersham Bioscience) equilibrated with buffer A. The fractions containing EGF receptor intracellular domain protein were collected, glycerol was added to the final concentration of 50% and cryopreserved at −80° C.
A test compound dissolved in dimethyl sulfoxide (DMSO) was diluted with a buffer (50 mM Tris-HCl (pH 7.5), 5 mM MgCl2, 5 mM MnCl2, 2 mM dithiothreitol, 0.01% Tween-20). To this compound solution (5 μL) was added a buffer (10 μL) containing 250 ng/mL of EGF receptor intracellular domain protein and 250 ng/mL of biotin labeled polypeptide biotinyl-poly-Glu:Tyr (4:1) (CIS bio International). […]
In general terms: Bead proximity is the source of the signal in Alpha formats.
Take `Cn1c(/C=C/CO)cc2ncnc(Nc3ccc(OCc4cccc(F)c4)c(Cl)c3)c21` [Example 22, (2E)-3-[4-({3-chloro-4-[(3-fluorobenzyl)oxy]phenyl}amino)-5-methyl-5H-pyrrolo[3,2-d]pyrimidin-6-yl]-2-propen-1-ol]: the inhibition at 1 µM amounted to 98.5%.

With `OCCn1ccc2ncnc(Nc3ccc(OCc4cccc(F)c4)c(Cl)c3)c21` [Example 41, 2-[4-({3-chloro-4-[(3-fluorobenzyl)oxy]phenyl}amino)-5H-pyrrolo[3,2-d]pyrimidin-5-yl]ethanol], the inhibition at 1 µM was found to be 98.9%.

In the case of `OCCOCCn1ccc2ncnc(Nc3ccc(OCc4cccc(F)c4)c(Cl)c3)c21` [Example 138, 2-{2-[4-({3-chloro-4-[(3-fluorobenzyl)oxy]phenyl}amino)-5H-pyrrolo[3,2-d]pyrimidin-5-yl]ethoxy}ethanol], the inhibition at 1 µM was 99%.

For the compound `OCCOCCn1ccc2ncnc(Nc3ccc(Oc4cccc(C(F)(F)F)c4)c(Cl)c3)c21` [Example 147, 2-{2-[4-({3-Chloro-4-[3-(trifluoromethyl)phenoxy]phenyl}amino)-5H-pyrrolo[3,2-d]pyrimidin-5-yl]ethoxy}ethanol], the inhibition at 1 µM turned out to be 96%.

Consider `CS(=O)(=O)CC(=O)NCCn1ccc2ncnc(Nc3ccc(Oc4cccc(C(F)(F)F)c4)c(Cl)c3)c21` [Example 160, N-{2-[4-({3-chloro-4-[3-(trifluoromethyl)phenoxy]phenyl}amino)-5H-pyrrolo[3,2-d]pyrimidin-5-yl]ethyl}-2-(methylsulfonyl)acetamide], for which the inhibition at 1 µM stood at 97%.

The values are drawn from patent publication US8178543B2, “Bi- and tricyclic fused pyrimidines as tyrosine kinase inhibitors” (Takeda Pharmaceutical Company Limited, priority 2004, dated 2012).
